Measured values taken from publication PMC9080489, “Synthesis and biological evaluation of 2-aryl-benzimidazole derivatives of dehydroabietic acid as novel tubulin polymerization inhibitors” (RSC Advances, 2018).

Experiments:
[1] = tested on: human breast cancer cell line (MDA-MB-231); assay: MTT cytotoxic assay, MDA-MB-231; assay type: cell-based; settings: MDA-MB-231, MTT, 48 h exposure, read-out: IC50 MDA-MB-231
Experimental: (§1) The in vitro antiproliferative activity of DAA derivatives (1–5, 6a–k, 7a–k) were evaluated by MTT assay against human hepatocarcinoma cell line (SMMC-7721), human breast cancer cell line (MDA-MB-231), human cervical carcinoma cell line (HeLa), mouse colon cancer cell line (CT-26) and human normal hepatocyte cell line (QSG-7701). Nocodazole was co-assayed as the positive control and DMEM culture medium containing 0.1% DMSO was used as negative control. The results of the tested compounds expressed as IC50 values (concentration required to inhibit tumor cell proliferation by 50%) were presented in Table 1.
(§2) The human hepatocarcinoma cell line (SMMC-7721), human breast cancer cell line (MDA-MB-231), human cervical carcinoma cell line (HeLa), mouse colon cancer cell line (CT-26) and human normal hepatocyte cells (QSG-7701) used in this study were all obtained from Keygene Biotech., China. These cell lines were maintained in DMEM medium supplemented with 10% heat-inactivated fetal bovine serum in a humidified atmosphere of 5% CO2 at 37 °C.
(§3) The in vitro cytotoxic activities of the benzimidazole derivatives of dehydroabietic acid were evaluated against tested cell lines via the MTT colorimetric method. Briefly, different tumor cells were grown in DMEM medium supplemented with 10% fetal bovine serum, penicillin (100 U mL^−1), and streptomycin (50 μg mL^−1). Cells were harvested at log phase of growth and seeded in 96-well plates (100 μL per well at a density of 2 × 10^5 cells mL^−1). After 24 h incubation at 37 °C and 5% CO2 to allow cell attachment, cultures were exposed to various concentrations of the isolated compounds for 48 h. Finally, MTT solution (2.5 mg mL^−1 in PBS) was added (40 μL per well). Plates were further incubated for 4 h at 37 °C, and the formazan crystals formed were dissolved by adding 150 μL per well of DMSO. Absorption at 570 nm was measured with an ELISA plate reader. The results were expressed as IC50 values with standard deviations, which was defined as the concentration at which 50% survival of cells was discerned. Nocodazole was co-assayed as positive control.

[2] = tested on: human cervical carcinoma cell line (HeLa); assay: MTT cytotoxic assay, HeLa; assay type: cell-based; settings: MTT, 48 h exposure, read-out: IC50 HeLa
Experimental: as §1, §2, §3

SMMC-7721 cells = assay: Cell cycle analysis (PI staining, flow cytometry); assay type: cell-based, human; settings: 24 h; for percentage of cells in G2/M phase: control 8.86%; for percentage of cells in S phase: control 25.21%; for percentage of cells in G0/G1 phase: control 65.93%
Experimental: Flow cytometry was used to analyze the effects of the DAA derivative on cell growth and division. SMMC-7721 cells were treated with different concentrations of compound 6j (0, 0.1, 0.2 and 0.5 μM) for 24 h. Cell cycle distribution was investigated by flow cytometric analysis after staining the DNA of the treated cells with propidium iodide (PI).
For the flow cytometric analysis of the DNA content, SMMC-7721 cells were seeded in 6-well plates (5 × 10^5 cells per well) and incubated in the absence or presence of compound 6j at indicated concentrations for 24 h. After treatment, cells were detached with 0.25% trypsin, harvested by centrifugation, washed twice with ice-cold PBS and then fixed and permeabilized with ice-cold ethanol at 4 °C overnight. Ethanol was removed by centrifugation, and the cells were washed twice and resuspended in ice-cold PBS. After this, the cells were treated with 100 μL of 100 μg mL^−1 RNAse A at 37 °C for 30 min, followed by incubation with 400 μL of 1 mg mL^−1 DNA staining solution propidium iodide (PI) in the dark at 4 °C for 30 min. The samples were then analyzed for their DNA content by flow cytometry (Becton-Dickinson FACSCalibur, New York, USA).

Porcine brain tubulin = target: T1, Porcine brain tubulin (Sus scrofa, UniProt P02550+P02554); assay: In vitro tubulin polymerization inhibition assay (OD340); assay type: biochemical; settings: 37 °C, 1 h, versus blank control
T1 construct: purchased Cytoskeleton, Inc. BK004P; host or cells: porcine brain tissue
T1 sequence (P02554 whole entry): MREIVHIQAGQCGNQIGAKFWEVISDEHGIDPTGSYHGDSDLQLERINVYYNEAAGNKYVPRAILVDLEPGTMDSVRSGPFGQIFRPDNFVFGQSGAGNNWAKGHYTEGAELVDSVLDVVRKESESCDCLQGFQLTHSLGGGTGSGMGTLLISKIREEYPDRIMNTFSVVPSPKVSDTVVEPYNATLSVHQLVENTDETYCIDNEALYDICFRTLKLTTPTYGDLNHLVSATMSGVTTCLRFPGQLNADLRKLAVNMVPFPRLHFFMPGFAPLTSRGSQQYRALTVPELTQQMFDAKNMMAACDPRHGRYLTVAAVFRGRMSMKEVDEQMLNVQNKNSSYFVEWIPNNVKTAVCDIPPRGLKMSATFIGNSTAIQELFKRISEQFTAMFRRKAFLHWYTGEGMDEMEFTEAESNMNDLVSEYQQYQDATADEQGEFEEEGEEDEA
T1 sequence (P02550 whole entry): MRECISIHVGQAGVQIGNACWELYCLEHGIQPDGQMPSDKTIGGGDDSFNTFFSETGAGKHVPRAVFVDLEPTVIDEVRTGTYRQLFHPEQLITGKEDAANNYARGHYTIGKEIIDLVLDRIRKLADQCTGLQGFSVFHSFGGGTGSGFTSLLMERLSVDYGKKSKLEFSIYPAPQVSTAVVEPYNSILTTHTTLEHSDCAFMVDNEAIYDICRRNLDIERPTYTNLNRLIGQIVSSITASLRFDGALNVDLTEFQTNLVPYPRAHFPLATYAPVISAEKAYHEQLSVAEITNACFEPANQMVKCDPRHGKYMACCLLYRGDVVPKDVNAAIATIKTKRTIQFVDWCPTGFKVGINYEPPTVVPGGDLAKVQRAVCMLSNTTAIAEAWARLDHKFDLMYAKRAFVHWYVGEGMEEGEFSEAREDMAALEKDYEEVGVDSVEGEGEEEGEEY
Experimental: The in vitro tubulin polymerization inhibition assay was carried out by using the Tubulin Polymerization Assay Kit (Cytoskeleton, Inc., USA) according to the protocol in the manual. Porcine brain tubulin was incubated with compound 6j at concentrations of 5 and 10 μM. The positive control colchicine and negative control taxol were co-assayed at the concentration of 10 μM, and G-PEM buffer was used as the blank control.
The tubulin polymerization assay was accomplished using a commercial assay kit (cat. #BK004P) purchased from Cytoskeleton, Inc. (Danvers, MA, USA). Tubulin isolated from porcine brain tissue was used in this tubulin polymerization assay kit. Tubulin polymerizations are followed by an increase in optical density at 340 nm (OD340) over a 60 min period at 37 °C due to the light scattered by microtubule polymer. At first, tubulin (4 mg) was disovled in 1 mL of G-PEM buffer containing 80 mM piperazine-N,N′-bis(2-ethanesulfonic acid) sequisodium salt (PIPES, pH 6.9), 2.0 mM MgCl2, 0.5 mM EGTA and 1 mM GTP to prepare tubulin solution. Subsequently, 10 μL of 10 × stock solutions of the tested compounds at different concentrations were added to a prewarmed 96-well plate and incubated at 37 °C for 2 min, then 90 μL of tubulin solution was also added into each well to initiate the reaction. The optical intensity (OD340) of each well was recorded every 60 s for 60 min (Cytation 3 Cell Imaging Multi-Mode Reader, BioTek Instruments, Inc., USA). Colchicine and taxol were co-assayed as the positive control and negative control, respectively. G-PEM buffer was used as the blank control.

COC(=O)[C@]1(C)CCC[C@]2(C)c3cc(Br)c4nc(-c5ccc6[nH]ccc6c5)[nH]c4c3CCC12 (some centres unmarked) [Compound 6j, Methyl 2′-(1H-indol-5-yl)-12-bromo-13,14-imidazolyl-deisopropyl-dehydroabietate]
IC50 [1]: 190 ± 40 nM | IC50 [2]: 230 ± 50 nM | percentage of cells in G2/M phase (SMMC-7721 cells; 0.1 μM): 13.65% | percentage of cells in S phase (SMMC-7721 cells; 0.1 μM): 29.52% | percentage of cells in G0/G1 phase (SMMC-7721 cells; 0.1 μM): 56.83% | percentage of cells in G2/M phase (SMMC-7721 cells; 0.2 μM): 18.37% | percentage of cells in S phase (SMMC-7721 cells; 0.2 μM): 29.34% | percentage of cells in G0/G1 phase (SMMC-7721 cells; 0.2 μM): 52.28% | percentage of cells in G2/M phase (SMMC-7721 cells; 0.5 μM): 26.42% | percentage of cells in S phase (SMMC-7721 cells; 0.5 μM): 24.27% | percentage of cells in G0/G1 phase (SMMC-7721 cells; 0.5 μM): 49.30% | effect on tubulin polymerization speed and final absorbance (OD340) (Porcine brain tubulin; 10 μM): stronger than colchicine | effect on tubulin polymerization speed and final absorbance (OD340) (Porcine brain tubulin; 5 and 10 μM): substantially decreased the polymerization speed and the final absorbance in a dose-dependent manner | melting point: 179 to 181 °C
